# Data: patent publication US8841259B2, “Compositions and methods for treating vascular permeability” (Joslin Diabetes Center, priority 2005, dated 2014)
# B1: angiotensinogen: serpin family protein (protein, UniProt P01019 25-476, looked up)
# Angiotensinogen: DRVYIHPFHLVIHNESTCEQLAKANAGKPKDPTFIPAPIQAKTSPVDEKALQDQLVLVAAKLDTEDKLRAAMVGMLANFLGFRIYGMHSELWGVVHGATVLSPTAVFGTLASLYLGALDHTADRLQAILGVPWKDKNCTSRLDAHKVLSALQAVQGLLVAQGRADSQAQLLLSTVVGVFTAPGLHLKQPFVQGLALYTPVVLPRSLDFTELDVAAEKIDRFMQAVTGWKTGCSLMGASVDSTLAFNTYVHFQGKMKGFSLLAEPQEFWVDNSTSVSVPMLSGMGTFQHWSDIQDNFSVTQVPFTESACLLLIQPHYASDLDKVEGLTFQQNSLNWMKKLSPRTIHLTMPQLVLQGSYDLQDLLAQAELPAILHTELNLQKLSNDRIRVGEVLNSIFFELEADEREPTESTQQLNKPEVLEVTLNRPFLFAVYDQSATALHFLGRVANPLSTA
# B2: PEDF: pigment epithelium-derived factor, serpin family protein (protein, UniProt P36955 20-418, looked up)
# Pigment epithelium-derived …: QNPASPPEEGSPDPDSTGALVEEEDPFFKVPVNKLAAAVSNFGYDLYRVRSSTSPTTNVLLSPLSVATALSALSLGAEQRTESIIHRALYYDLISSPDIHGTYKELLDTVTAPQKNLKSASRIVFEKKLRIKSSFVAPLEKSYGTRPRVLTGNPRLDLQEINNWVQAQMKGKLARSTKEIPDEISILLLGVAHFKGQWVTKFDSRKTSLEDFYLDEERTVRVPMMSDPKAVLRYGLDSDLSCKIAQLPLTGSMSIIFFLPLKVTQNLTLIEESLTSEFIHDIDRELKTVQAVLTVPKLKLSYEGEVTKSLQEMKLQSLFDSPDFSKITGKPIKLTQVEHRAGFEWNEDGAGTTPSPGLQPAHLTFPLDYHLNQPFIFVLRDTDTGALLFIGKILDPRGP
# B3: C1-INH: Complement-1 Inhibitor, inhibits the serum protease kallikrein (protein, UniProt P05155 23-500, looked up)
# Plasma protease C1 inhibitor: NPNATSSSSQDPESLQDRGEGKVATTVISKMLFVEPILEVSSLPTTNSTTNSATKITANTTDEPTTQPTTEPTTQPTIQPTQPTTQLPTDSPTQPTTGSFCPGPVTLCSDLESHSTEAVLGDALVDFSLKLYHAFSAMKKVETNMAFSPFSIASLLTQVLLGAGENTKTNLESILSYPKDFTCVHQALKGFTTKGVTSVSQIFHSPDLAIRDTFVNASRTLYSSSPRVLSNNSDANLELINTWVAKNTNNKISRLLDSLPSDTRLVLLNAIYLSAKWKTTFDPKKTRMEPFHFKNSVIKVPMMNSKKYPVAHFIDQTLKAKVGQLQLSHNLSLVILVPQNLKHRLEDMEQALSPSVFKAIMEKLEMSKFQPTLLTLPRIKVTTSQDMLSIMEKLEFFDFSYDLNLCGLTEDPDLQVSAMQHQTVLELTETGVEAAAASAISVARTLLVFEVQQPFLFVLWDQQHKFPVFMGRVYDPRA
# What was measured:
# [1] = system: retinal vascular permeability (RVP) in rats; assay: Retinal vascular permeability by vitreous fluorophotometry after intravitreal injection; type: in vivo, rat; details: for RVP (vitreous fluorescein intensity): CA-1 200 ng/eye, BSS control 7.4 au; for effect on CA-1 induced permeability: co-injection of serpin family proteins
# Experimental: (§1) To measure retinal vascular permeability, 265 male Sprague Dawley and 12 male Long-Evans rats (Taconic Farms, Germantown, N.Y.) with initial body weights of 250 g were used. Experiments were performed in accordance with guidelines from the Association for Research in Vision and Opthalmology and approval from the Animal Care and Use committee of the Joslin Diabetes Center. Video fluorescein angiography was performed using a scanning laser opthalmoscope (Rodenstock Instrument, Munich, Germany) (Horio et al., Diabetologia 47:113-123 (2004)). Vitreous fluorophotometry and administration of fluorescein-dextran was performed as described previously (Aiello et al., Diabetes 46:1473-1480 (1997)).
# Intravitreal injection of CA-1 increased RVP, as measured by vitreous fluorophotometry, in a dose-dependent manner (FIG. 3A), with a maximal increase of 2.3 fold (p<0.05) at 2 μg. […] The effect of a single dose of CA-1 on RVP was sustained at 59% over control at 24 hours post injection (FIG. 3B).
# [2] = system: blood-brain barrier permeability in rats; assay: Blood-brain barrier permeability to Evans blue after subdural infusion; type: in vivo, rat
# Experimental: Approximately 22 hours later, 0.7 ml Evans blue was injected through a jugular vein catheter. After the dye circulated for 120 minutes, the rats were perfused with 50 ml saline through the left ventricle at 110 mmHg pressure. After decapitation, the brain was weighed and Evan's blue was extracted by incubating each brain in 1 ml of formamide for 20 hours at 60° C. The extract was centrifuged (14,000 rpm for 30 minutes). The absorbance of the filtrate was measured with a spectrophotometer at 620 nm. The concentration of dye in the extracts was calculated from a standard curve of Evans blue in formamide, normalized to the brain weight, and expressed per gram of tissue.
# [3] = system: retina of streptozotocin diabetic rats; assay: OCT imaging of retinal thickness in diabetic rats after intravitreal CA-1; type: in vivo, rat
# Experimental: Rats had diabetes induced by intraperitoneal injection of streptozotocin (55 mg/kg) after overnight fast. Diabetes was confirmed after 24 hours with blood glucose greater than 250 mg/dl. After 2 weeks of diabetes, rats were injected intravitreally with CA-1 or BSS and the retinas imaged by OCT after 48 hours. Retinal ultrastructure was imaged and quantitatively measured using a high-speed, ultrahigh resolution OCT system with Fourier/spectral domain detection. Using a broadband superluminescent diode light source (Superlum Diodes Limited, Moscow, Russia) with a 155 nm bandwidth, a 2.6 μm axial resolution in tissue was achieved after digital spectral shaping. The imaging speed was 26,000 axial scans per second and the system sensitivity was 96 dB with an axial (depth) scan range of 1.3 mm in tissue. The OCT research instrument was designed for small animal retinal imaging and used a post-objective scanning microscope with a 10 μm transverse resolution. Corneal refraction was compensated with a coverslip and Goniosol (CIBA Vision Ophthalmics). Each data set consisted of 256 images with 512 axial scans per image, acquired in a raster pattern on the retina. Measurements of intraretinal layer thicknesses were performed on individual cross sectional OCT images.
# [4] = system: retinal vascular permeability (RVP) in rats; assay: Video fluorescein angiography of rat retina after intravitreal injection; type: in vivo
# Experimental: as §1
# Carbonic anhydrase was not detected by either mass spectroscopy or western blot analysis in the vitreous of untreated Sprague Dawley rats.
# [5] = system: retinal vascular permeability (RVP) in rats; assay: Retinal Evans blue permeability after intravitreal lysed RBC or CA-1; type: in vivo, rat
# Experimental: To prepare lysed RBCs, 3 ml rat blood in 15 ml saline was centrifuged at 1,000 g for 10 minutes; the plasma and buffy coat were discarded. The RBCs were then washed in 12 ml saline. The packed cells were frozen in liquid nitrogen for 5 minutes and then allowed to thaw at room temperature. The lysed RBCs were centrifuged at 12,000 rpm for 30 minutes. The supernatant was used for experiment. […] Approximate 21 hours later, Evans blue was injected at a dosage of 30 mg/kg. After the dye had circulated for 3 hours the rats were perfused via the left ventricle with saline. The retina were harvested and Evans blue dye was extracted by incubation in 0.3 ml formamide for 20 hours at 60° C. The extract was centrifuged (14,000 rpm for 30 minutes). The absorbance of the filtrate was measured with a spectrophotometer at 620 nm. The concentration of dye in the extracts was calculated from a standard curve.
# [6] = system: RVP in rat eyes injected with human vitreous; assay: Transplant of human vitreous into rat vitreous, RVP measurement; type: in vivo; details: vitreous pretreated with 10 μM
# Experimental: In these tests, 10 μl of human vitreous was injected into the rat vitreous compartment and the response on retinal vascular permeability was measured.
# [7] = diabetic rat, 48 hours after intravitreal injection, OCT
# [8] = intravitreal injection of 100 μM
molecule,measurement,setting,value
Hoe 140 [reference compound],reduction of CA-1 stimulated RVP,[1]; co-injection with CA-1,67%
"CA-1: carbonic anhydrase-1, extracellular erythrocyte enzyme injected as vascular permeability factor",increase of RVP,"[1]; 200 ng/eye (20 μg/ml) intravitreal, vs BSS, P<0.05",2.4 fold
same,maximal increase of RVP,"[1]; at 2 μg intravitreal, p<0.05",2.3 fold
same,EC50 as final concentration in vitreous,[1]; following dilution in 100 uL of rat vitreous,about 670 pg/μL
same,EC50 for increase of RVP,[1]; intravitreal injection,67 ng
same,RVP (vitreous fluorescein intensity),[1]; intravitreal injection,17.4 au
same,RVP over control,"[1]; single dose, 24 hours post injection",59%
same,Evan's blue leakage on posterior and anterior surfaces of the brain,"[2]; subdural infusion, 24 hours",induced intense focal areas of Evan's blue leakage
same,increase of permeability in brain compared to BSS,"[2]; subdural infusion, Evan's blue quantification, P<0.05",2.3 fold
same,increase of ONL share of retinal thickness compared with BSS-treated diabetic rats,[3]; 48 hours,17%
same,increase of ONL share of retinal thickness compared with nondiabetic rats,[3]; 48 hours,18%
same,ONL share of overall retinal thickness,"[3]; diabetic rat, 48 hours",38%
same,increase in outer nuclear layer (ONL) thickness vs contralateral saline vehicle eye,[3]; [7],30%
same,increase in retina thickness vs contralateral saline vehicle eye,[3]; [7],12%
same,retinal vascular leakage (fluorescein and 2000 kDa fluorescein-dextran),[4]; 48 hours after intravitreal injection,focal areas of retinal vascular leakage were observed
same,retinal fluorescein leakage,"[4]; intravitreal 2 μg/ml, at 30 minutes, vs baseline or BSS",increased retinal fluorescein leakage
same,RVP compared with eyes that received BSS,"[5]; intravitreal injection, Evans blue",3.0 fold
VEGF,RVP (vitreous fluorescein intensity),[1]; intravitreal injection,14.5 au
"CC(=O)Nc1nnc(S(N)(=O)=O)s1 [acetazolamide, reference compound]",effect on RVP in rat eyes injected with vitreous from noDR and NDM groups,[6],did not affect
same,RVP in rat eyes injected with vitreous from subjects with PDR,"[6]; reduced from 13.67±5.23, P=0.017, n=5",9.20±3.85
same,effect on basal RVP,[1]; 10 μM,no effect
same,inhibition at 10 µM,"[1]; Rattus norvegicus, co-injection of 10 μM, p<0.05, read-out: inhibition of CA-1 induced RVP",68%
same,effect on increase in RVP induced by CA-1,[4]; co-injection 10 μM with CA-1,blocked
same,effect on increase in RVP by lysed RBC,"[5]; pretreatment of lysed RBC with 10 μM, P<0.05",blocked
aprotinin [reference compound],reduction of CA-1 stimulated RVP,[1]; [8],50%
"CC(=O)N[C@@H](CC(C)C)C(=O)N[C@@H](CC(C)C)C(=O)N[C@H](C=O)CCCNC(=N)N [leupeptin, reference compound]",reduction of CA-1 stimulated RVP,[1]; [8],71%
B1,effect on CA-1 induced permeability,[1],did not block
B2,effect on CA-1 induced permeability,[1],did not block
B3,effect on VEGF-induced retinal fluorescein permeability,[1]; co-injection,did not affect
same,reduction of CA-1 stimulated RVP,[1]; co-injection with CA-1,92%
same,effect on CA-1-induced cerebral vascular permeability,"[2]; subdural, with CA-1",blocked
